# Measurements from paper PMC5837957 (European journal of medicinal chemistry, 2018).
# Several values for one entry are separate records, joined by “and”; a condition that tells them apart may be missing. Identical values can stand only once. Entries after “also recorded” stand apart in the source; their conditions may differ. Like-named read-outs stand apart in the source and are kept apart here. Positions of bridges follow the written chain, without caps; N, C: chain ends. Residues, ends and D or L forms follow the SMILES beside them. *: point of attachment. Stearoyl = CCCCCCCCCCCCCCCCCC(=O)*; Octanoyl = CCCCCCCC(=O)*
# Tests used:
# MCF-7 breast cancer line [1] = settings: 2 h
# [2] = tested on: Calu-6 lung cancer cell line; settings: for IC50: 2 h; for % cell death Calu 6: 72-hour treatment, inactive indicates no growth inhibition at a concentration of 100 µM
# [3] = tested on: K562 myelogenous leukemia cell line; settings: for % cell death K562: 72-hour treatment
# [4] = tested on: global H3K4me2 in Calu6 lung adenocarcinoma cells; assay: Western blot of global H3K4me2, Calu6; settings: 10 µM, 48-hour exposure
# [5] = tested on: global H3K4me2 in K562 leukemia cells; assay: Western blot of global H3K4me2, K562
# [6] = tested on: H3K4me2 at the promoter of the IGFBP2 gene in NCI-H526 cells; assay: ChIP-qPCR of H3K4me2 at IGFBP2 promoter; type: cell-based; settings: 100 µM, 48 h
# [7] = tested on: H3K4me2 at the promoter of the FEZ1 gene in NCI-H526 cells; assay: ChIP-qPCR of H3K4me2 at FEZ1 promoter; type: cell-based; settings: 100 µM, 48 h
# [8] = tested on: Calu-6 lung cancer cell line; settings: read-out: IC50 (Calu-6); cited from earlier work
# MCF-7 breast cancer line [9] = settings: read-out: IC50 (MCF7); cited from earlier work
# recombinant LSD1/CoREST = recombinant LSD1/CoREST (Homo sapiens, UniProt O60341); assay: In vitro LSD1 demethylation assay; type: biochemical; settings: Table 3, truncated peptides; inhibitor 500 nM; 0.5 µM
# [10] = tested on: Calu-6 lung cancer cell line; assay: cells; settings: Homo sapiens, Calu-6, 72 h, 72-hour treatment
# MCF-7 breast cancer line [11] = assay: cells; settings: Homo sapiens, MCF7, 72 h, 72-hour treatment
# recombinant LSD1 = settings: cited from earlier work
# LSD1 bound to CoREST = settings: read-out: Ki, LSD1 bound to CoREST; cited from earlier work
compound,measurement,setting,value
CCCCCCCCCCCCCCCCCC(=O)NCCCC[C@H](NC(=O)[C@H](C)NC(=O)[C@H](CC(C)C)NC(=O)[C@H](CCC(N)=O)NC(=O)[C@H](CCCCN)NC(=O)[C@H](CCCNC(=N)N)NC(=O)[C@@H]1CCCN1C(=O)[C@H](C)NC(=O)[C@H](CCCCN)NC(=O)CNC(=O)CNC(=O)[C@@H](NC(=O)[C@@H]1CCC(=O)NCCCC[C@H](NC(=O)[C@H](CCSC)NC(=O)[C@@H](NC(=O)[C@H](CCCNC(=N)N)NC(=O)[C@H](C)N)[C@@H](C)O)C(=O)N[C@@H]([C@@H](C)O)C(=O)N[C@@H](C)C(=O)N[C@@H](CCCNC(=N)N)C(=O)N[C@@H](CCCCN)C(=O)N1)[C@@H](C)O)C(N)=O [Compound 25],IC50,MCF-7 breast cancer line [1],< 5 µM
same,IC50,[2],< 11 µM
H-ARAM c[K^5TARK^9E^10]TGG-K^14APRK-NH2 [Compound 21],% cell death K562,[3]; 1.0 µM,59 ± 8.1%
same,% cell death K562,[3]; 100 µM,9.5 ± 6.7%
CCCCCCCC(=O)NCCCC[C@H](NC(=O)[C@H](C)NC(=O)[C@H](CC(C)C)NC(=O)[C@H](CCC(N)=O)NC(=O)[C@H](CCCCN)NC(=O)[C@H](CCCNC(=N)N)NC(=O)[C@@H]1CCCN1C(=O)[C@H](C)NC(=O)[C@H](CCCCN)NC(=O)CNC(=O)CNC(=O)[C@@H](NC(=O)[C@@H]1CCC(=O)NCCCC[C@H](NC(=O)[C@H](CCSC)NC(=O)[C@@H](NC(=O)[C@H](CCCNC(=N)N)NC(=O)[C@H](C)N)[C@@H](C)O)C(=O)N[C@@H]([C@@H](C)O)C(=O)N[C@@H](C)C(=O)N[C@@H](CCCNC(=N)N)C(=O)N[C@@H](CCCCN)C(=O)N1)[C@@H](C)O)C(N)=O [Compound 27],IC50,MCF-7 breast cancer line [1],36.1 µM
same,change in global H3K4 methylation compared to control,[4],did not induce any changes
same,IC50,[2],92.4 µM
same,increase in global H3K4me2 compared to control,"[5]; 10 µM, 48-hour exposure, normalized to GAPDH",17.6 fold
same,H3K4me2 levels at the IGFBP2 promoter,[6],increases H3K4me2 marks
same,H3K4me2 levels at the FEZ1 promoter,[7],increases H3K4me2 marks
H-ARTM-c[K^5TARK^9E^10]TGGK^14APRKQLA-NH2 [Compound 9],IC50,[8],158 µM
same,IC50,MCF-7 breast cancer line [9],153 µM
CCCCCCCC(=O)NCCCC[C@H](NC(=O)[C@H](C)NC(=O)[C@H](CC(C)C)NC(=O)[C@H](CCC(N)=O)NC(=O)[C@H](CCCCN)NC(=O)[C@H](CCCNC(=N)N)NC(=O)[C@@H]1CCCN1C(=O)[C@H](C)NC(=O)[C@H](CCCCN)NC(=O)CNC(=O)CNC(=O)[C@@H](NC(=O)[C@@H]1CCC(=O)NCCCC[C@H](NC(=O)[C@H](CCSC)NC(=O)[C@H](C)NC(=O)[C@H](CCCNC(=N)N)NC(=O)[C@H](C)N)C(=O)N[C@@H]([C@@H](C)O)C(=O)N[C@@H](C)C(=O)N[C@@H](CCCNC(=N)N)C(=O)N[C@@H](CCCCN)C(=O)N1)[C@@H](C)O)C(N)=O [Compound 28] (H-ARAMKTARKETGGKAPRKQLAK(Octanoyl)-NH2; lactam 5-10),IC50,MCF-7 breast cancer line [1],28.1 µM
same,change in global H3K4 methylation compared to control,[4],did not induce any changes
same,IC50,[2],40.2 µM
same,dose dependence of H3K4 methylation,"[5]; 0.1 µM and 1.0 µM, 48 h, preliminary study",modest dose dependent increase
same,H3K4me2 levels at the IGFBP2 promoter,[6],greatest increase; also recorded: increases H3K4me2 marks
same,IC50,[3]; 2 h,95.1 µM
same,H3K4me2 levels at the FEZ1 promoter,[7],greatest increase; also recorded: increases H3K4me2 marks
"Cl.Cl.c1ccc([C@@H]2C[C@H]2NC2CCNCC2)cc1 [GSK-LSD1, reference compound]",H3K4me2 levels at the IGFBP2 promoter,[6],increases H3K4me2 marks; also recorded: somewhat less effective
same,H3K4me2 levels at the FEZ1 promoter,[7],increases H3K4me2 marks; also recorded: somewhat less effective
H-ARAM c[K^5TARK^9E^10]TG-NH2 [Compound 23],% inhibition of LSD1 at 500 nM,recombinant LSD1/CoREST,67.3% and 67.31 ± 5.81%
same,% cell death Calu 6,[2],inactive
same,% cell death K562,[3]; 1.0 µM,90 ± 9.4%
same,% cell death K562,[3]; 100 µM,18 ± 3.7%
H-ARAM c[K^5TARK^9E^10] -NH2 [Compound 24],% inhibition of LSD1 at 500 nM,recombinant LSD1/CoREST,59.8% and 59.78 ± 5.71%
same,% cell death Calu 6,[2],inactive
"N=C(NCCCNCCCCCCCNCCCNC(=N)NC(=N)NCCC(c1ccccc1)c1ccccc1)NC(=N)NCCC(c1ccccc1)c1ccccc1 [Compound 3, verlindamycin]",IC50,"[10]; read-out: IC50 (Calu-6), Table 2",6.3 µM
same,IC50,"[10]; read-out: IC50 (Calu-6), Table 6",1.6 µM
same,IC50,"MCF-7 breast cancer line [11]; read-out: IC50 (MCF7), Table 2",5.1 µM
same,IC50,"MCF-7 breast cancer line [11]; read-out: IC50 (MCF7), Table 6",2.5 µM
H-ARAM c[K^5TARK^9E^10]TGG-K^14A-NH2 [Compound 22],% inhibition of LSD1 at 500 nM,recombinant LSD1/CoREST,73.4% and 73.43 ± 3.75%
same,% cell death Calu 6,[2],inactive
same,% cell death K562,[3]; 1.0 µM,53 ± 11.3%
same,% cell death K562,[3]; 100 µM,11 ± 3.2%
H-ARTMK^5TARKS^10TGGKAPRKQLA-OH [Compound 8],IC50,recombinant LSD1; read-out: IC50 (LSD1),0.051 µM
same,Ki,recombinant LSD1; read-out: Ki (LSD1),0.04 µM
same,Ki,LSD1 bound to CoREST,0.05 µM
CCCCCCCCCCCCCCCCCC(=O)NCCCC[C@H](NC(=O)[C@H](C)NC(=O)[C@H](CC(C)C)NC(=O)[C@H](CCC(N)=O)NC(=O)[C@H](CCCCN)NC(=O)[C@H](CCCNC(=N)N)NC(=O)[C@@H]1CCCN1C(=O)[C@H](C)NC(=O)[C@H](CCCCN)NC(=O)CNC(=O)CNC(=O)[C@@H](NC(=O)[C@@H]1CCC(=O)NCCCC[C@H](NC(=O)[C@H](CCSC)NC(=O)[C@H](C)NC(=O)[C@H](CCCNC(=N)N)NC(=O)[C@H](C)N)C(=O)N[C@@H]([C@@H](C)O)C(=O)N[C@@H](C)C(=O)N[C@@H](CCCNC(=N)N)C(=O)N[C@@H](CCCCN)C(=O)N1)[C@@H](C)O)C(N)=O [Compound 26] (H-ARAMKTARKETGGKAPRKQLAK(Stearoyl)-NH2; lactam 5-10),IC50,MCF-7 breast cancer line [1],< 5 µM
same,IC50,[2],< 11 µM
